Data from US20230381343A1, “Treatment for Intraocular Pressure Related Disorders” (Mayo Foundation for Medical Education and Research, priority 2021, published 2023).

Legend:
[1] = test system: mouse model of experimental autoimmune uveitis; assay: Experimental autoimmune uveitis (EAU), topical treatment; assay type: in vivo; details: daily topical
Method: Following induction of experimental autoimmune uveitis (EAU), mice were treated daily with topical latanoprost free acid (LFA; 100 μM) or STC-1 (0.5 μg/mL) in one eye and vehicle in the other eye. At day 18, OCT was performed and retinal thickness was measured in a masked manner. At day 21, eyes were enucleated and processed for hematoxylin and eosin (H&E) staining.
Experimental autoimmune uveitis (EAU) was induced in the C57B/6 mouse with a protocol described elsewhere (see, e.g., Avichezer et al., Invest. Ophthalmol. Vis. Sci., 41(1):127-31 (2004)). Briefly, human interphotoreceptor retinoid binding protein (IRBP) in complete Freund's adjuvant was injected subcutaneously and pertussis toxin was injected intraperitoneally as an additional immune stimulus.

C57BL/6J mice = assay: Aqueous outflow parameters by constant flow infusion; assay type: in vivo, mouse; details: 6 weeks post intracameral injection, treatment day 5 for topical
From the text: To determine the effects of ssAAV2-smCBA-STC-1-FLAG on parameters of aqueous outflow, 3-month old C57BL/6J mice were separately treated with the following: 1) intracameral ssAAV2-smCB A-STC-1-FLAG (n=5), 2) intracameral ssAAV2-smCBA-GFP (n=5), 3) topical recombinant human STC-1 (n=4; Biovender Research and Diagnostic Products, Czech Republic) (Roddy et al., Invest Ophthalmol Vis Sci. 58:2715-24(2017); Roddy et al., PLoS ONE. 15(2020)), 4) topical latanoprost free acid (LFA; n=5; Cayman Chemical, Ann Arbor, MI), or 5) untreated mice (n=4). Mice that received topical treatments were treated with once daily topical doses of STC-1 (5 μl of 0.5 μg/μl) or LFA (10^-4 M) for 5 days prior to aqueous outflow experiments. Mice that received intracameral injections were treated 6 weeks prior to aqueous outflow measurements. Aqueous outflow was assessed using the protocols previously established (Millar et al., Invest Ophthalmol Vis Sci. 52:685-94(2011); Roy Chowdhury et al., Invest Ophthalmol Vis Sci. 58:5731-42(2017)). Briefly, a 33-g needle was used to cannulate the anterior chamber of anesthetized mice. The needle was connected to a flow-through pressure transducer (World Precision Instruments, Sarasota, FL) that was also connected to an SP101i microdialysis infusion pump (World Precision Instruments) and an open-ended, variable-height, raised reservoir manometer. Episcleral venous pressure was obtained by visualizing the reflux of blood into Schlemm's canal by direct ophthalmoscopy as the reservoir was lowered. Outflow facility was determined by slowly increasing the flow rate with the infusion pump and recording the pressure. Uveoscleral outflow was calculated when the inflow is presumed to be zero immediately after animal sacrifice. Aqueous humor formation was then estimated by using the modified Goldmann equation, i.e. aqueous formation rate=[outflow facility X (IOP−episcleral venous pressure)]+uveoscleral outflow as previously described (Millar et al., Invest Ophthalmol Vis Sci. 52:685-94(2011)). To validate the calculated IOP values based on the Goldman equation, IOP was also assessed with a handheld rebound tonometer. All data were recorded and analyzed using LabScribe software (World Precision Instruments).

wild-type C57BL/6J mice = assay: Steroid-induced (dexamethasone) ocular hypertension model, topical treatment; assay type: in vivo, mouse
From the text: All studies were approved by the Mayo Clinic (Rochester, MN) IACUC and adhered to ARVO guidelines. […] In the final phase of the experiment (experimental weeks 7-9, treatment weeks 4-6), dexamethasone-injected animals in Group 2 continued to receive topical STC-1 while treatment was halted in the vehicle-injected fellow eye for a medication wash-out period (FIG. 22). For statistical purposes, the final week of each condition was selected (i.e. weeks 3, 6, and 9) for analysis. To determine if a difference in IOP was present among groups at week 6 and 9, a Kruskal-Wallis test was performed. An unpaired t-test was used to directly compare the two groups. Values for all statistical tests were considered significant at P<0.05.
For both models histologic analysis was performed.

[2] = one eye, IOP 33 mmHg at 12 months after plaque
From the text: Records were reviewed for patient demographics, clinical tumor features, treatment parameters, and outcomes, with attention to IOP and optic disc features.

With `O=C(O)CCC/C=C\C[C@@H]1[C@@H](CC[C@@H](O)CCc2ccccc2)[C@H](O)C[C@@H]1O` [LFA, latanoprost free acid] the “Retinal thickness by OCT vs vehicle control eye” value ([1]; day 18) was “no significant difference in retinal thickness”, the “Vitreous inflammatory cells (H&E)” value ([1]; day 21) was “trend toward greater vitreous cell” and the Episcleral venous pressure (C57BL/6J mice) was 10.0 ± 2.4 mmHg. For the same compound, the Outflow facility (C57BL/6J mice) was 0.046 ± 0.02 μL/min/mmHg, the Uveoscleral outflow (C57BL/6J mice) was 0.046 ± 0.02 µL/min and the “Calculated IOP” value (C57BL/6J mice; Goldmann equation) was 14.0 ± 1.9 mmHg. The “Measured IOP” value (C57BL/6J mice; rebound tonometer) was 13.2 ± 0.9 mmHg.
For `CC(=O)OCC(=O)[C@@]1(O)[C@H](C)C[C@H]2[C@@H]3CCC4=CC(=O)C=C[C@]4(C)[C@@]3(F)[C@@H](O)C[C@@]21C` [dexamethasone, dexamethasone acetate], the IOP (wild-type C57BL/6J mice; PBS-treated dexamethasone-injected eyes, week 6, n=8) was 19.5±1.7 mmHg, the IOP (wild-type C57BL/6J mice; PBS-treated dexamethasone-injected eyes, week 9, n=8) was 19.7±1.3 mmHg and the “Increase in IOP vs vehicle-injected eyes” value (wild-type C57BL/6J mice; after 3 weekly conjunctival fornix injections, n=18) was 18%. The IOP (wild-type C57BL/6J mice; dexamethasone-injected eyes, week 3, n=18) was 19.7±1.8 mmHg and the “IOP change vs PBS-treated vehicle-injected eyes” value (wild-type C57BL/6J mice; week 6, n=8) was 25%.
With “dorzolamide hydrochloride-timolol maleate” the “Response of IOP spike to topical therapy” value [2] was “responded”.
